Laboratory results published in patent US12454529B2, “Piperazine cyclic ureas” (SIRONAX LTD., priority 2020, dated 2025).

tested on: HT-29 cells; experiment: HT-29 cell necrosis/necroptosis inhibition (TNF-α + SMAC mimetic + zVAD-FMK; CellTiter-Glo cell viability); assay type: cell-based; settings: Homo sapiens; HT-29 cells, TNF-α 10 ng/ml + SMAC mimetic 6 μM + zVAD-FMK 10 μM, 20 hours; geometric mean, 10 points in duplicate; read-out: EC50 (Cell activity; Necrosis/Necroptosis Inhibitory Activity, Compounds 1-142)
How it was run: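 Necroptosis was driven by TNF-α 10 ng/ml plus SMAC mimetic 6 μM and zVAD-FMK 10 μM in serum-free medium, with compounds as a 10-point threefold titration. After 20 h at 37 °C, ATP-based luminescence was read; EC50 values are geometric means of duplicate curves.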

| Structure (SMILES) | EC50 [nM] |
| --- | --- |
| Cc1nn(CC2CCOC2)c(C)c1-c1nc(N2CCN(C(=O)N3N=CC[C@H]3c3cc(F)cc(C#N)c3)CC2)ncc1F (stereo partly drawn) [Compound 132, 3-((5S)-1-(4-(4-(3,5-dimethyl-1-((tetrahydrofuran-3-yl)methyl)-1H-pyrazol-4-yl)-5-fluoropyrimidin-2-yl)piperazine-1-carbonyl)-4,5-dihydro-1H-pyrazol-5-yl)-5-fluorobenzonitrile] | 0.1 to 100 |
| Cc1nnnn1-c1nc(N2CCN(C(=O)N3N=CC[C@H]3c3cc(F)cc(C#N)c3)CC2)ncc1F [Compound 59, (S)-3-fluoro-5-(1-(4-(5-fluoro-4-(5-methyl-1H-tetrazol-1-yl)pyrimidin-2-yl)piperazine-1-carbonyl)-4,5-dihydro-1H-pyrazol-5-yl)benzonitrile] | 0.1 to 100 |
| O=C(N1CCN(c2ncc(F)c(-n3cnc(Cl)n3)n2)CC1)N1N=CC[C@H]1c1cc(F)cc(F)c1 [Compound 24, (S)-(4-(4-(3-chloro-1H-1,2,4-triazol-1-yl)-5-fluoropyrimidin-2-yl)piperazin-1-yl)(5-(3,5-difluorophenyl)-4,5-dihydro-1H-pyrazol-1-yl)methanone] | 0.1 to 100 |
| O=C(N1CCN(c2nccc(-c3cc[nH]n3)n2)CC1)N1N=CC[C@H]1c1cccc(F)c1 [Compound 35, (S)-(4-(4-(1H-pyrazol-3-yl)pyrimidin-2-yl)piperazin-1-yl)(5-(3-fluorophenyl)-4,5-dihydro-1H-pyrazol-1-yl)methanone] | 0.1 to 100 |
| O=C(N1CCN(c2ncc(F)c(-c3ccc(O)nc3)n2)CC1)N1N=CC[C@H]1c1cc(F)cc(F)c1 [Compound 25, (S)-(5-(3,5-difluorophenyl)-4,5-dihydro-1H-pyrazol-1-yl)(4-(5-fluoro-4-(6-hydroxypyridin-3-yl)pyrimidin-2-yl)piperazin-1-yl)methanone] | 0.1 to 100 |

same assay, conditions: Homo sapiens; HT-29 cells, TNF-α 10 ng/ml + SMAC mimetic 6 μM + zVAD-FMK 10 μM, 20 hours; geometric mean, 10 points in duplicate; read-out: EC50 (Cell activity; Necrosis/Necroptosis Inhibitory Activity, Compounds 143-323)

| Structure (SMILES) | EC50 [nM] |
| --- | --- |
| Cc1nn(-c2cc(N3CCN(C(=O)N4N=CC[C@H]4c4cncc(F)c4)CC3)ncn2)c(C)c1Cl [Compound 290, (S)-(4-(6-(4-chloro-3,5-dimethyl-1H-pyrazol-1-yl)pyrimidin-4-yl)piperazin-1-yl)(5-(5-fluoropyridin-3-yl)-4,5-dihydro-1H-pyrazol-1-yl)methanone] | 0.1 to 100 |
| O=C(N1CCN(c2ncc(F)c(-n3nccc3C(F)(F)F)n2)CC1)N1N=CC[C@H]1c1cc(F)cc(F)c1 [Compound 315, (S)-(5-(3,5-difluorophenyl)-4,5-dihydro-1H-pyrazol-1-yl)(4-(5-fluoro-4-(5-(trifluoromethyl)-1H-pyrazol-1-yl)pyrimidin-2-yl)piperazin-1-yl)methanone] | 0.1 to 100 |
| N#Cc1cc(F)cc([C@@H]2CC=NN2C(=O)N2CCN(c3nc(-n4cc(C#N)cn4)ncc3F)CC2)c1 [Compound 219, (S)-1-(4-(4-(5-(3-cyano-5-fluorophenyl)-4,5-dihydro-1H-pyrazole-1-carbonyl)piperazin-1-yl)-5-fluoropyrimidin-2-yl)-1H-pyrazole-4-carbonitrile] | 0.1 to 100 |
| Cc1nc(C2CC=NN2C(=O)N2CCN(c3nc(-c4c(C)cnn4C)ccc3F)CC2)cs1 (centres unmarked) [Compound 298, (4-(6-(1,4-dimethyl-1H-pyrazol-5-yl)-3-fluoropyridin-2-yl)piperazin-1-yl)(5-(2-methylthiazol-4-yl)-4,5-dihydro-1H-pyrazol-1-yl)methanone] | 0.1 to 100 |
| Cc1[nH]nc(CO)c1-c1nc(N2CCN(C(=O)N3N=CC[C@H]3c3cc(F)cc(C#N)c3)CC2)ncc1F [Compound 163, (S)-3-fluoro-5-(1-(4-(5-fluoro-4-(3-(hydroxymethyl)-5-methyl-1H-pyrazol-4-yl)pyrimidin-2-yl)piperazine-1-carbonyl)-4,5-dihydro-1H-pyrazol-5-yl)benzonitrile] | 0.1 to 100 |
| N#Cc1cnn(-c2ncc(F)c(N3CCN(C(=O)N4N=CC[C@H]4c4cc(F)cc(F)c4)CC3)n2)c1 [Compound 218, (S)-1-(4-(4-(5-(3,5-difluorophenyl)-4,5-dihydro-1H-pyrazole-1-carbonyl)piperazin-1-yl)-5-fluoropyrimidin-2-yl)-1H-pyrazole-4-carbonitrile] | 0.1 to 100 |
